Assay results reported in US10448639B2, “Fungicidal pyrazoles” (FMC CORPORATION, priority 2009, dated 2019).
Marks after values point to notes of the source that are not given here.

Legend:
[1] = tested on: Erysiphe graminis f sp. tritici; experiment: Test J: wheat powdery mildew, preventive spray on wheat seedlings, visual disease rating
[2] = tested on: Septoria nodorum; experiment: Test F: Septoria glume blotch, preventive spray on wheat seedlings, visual disease rating
[3] = tested on: Puccinia recondita f. sp. tritici; experiment: Test H: wheat leaf rust, curative spray on inoculated wheat seedlings, visual disease rating
[4] = tested on: Septoria tritici; experiment: Test G: wheat leaf blotch, preventive spray on wheat seedlings, visual disease rating
[5] = tested on: Botrytis cinerea; experiment: Test B: tomato Botrytis, preventive spray on tomato seedlings, visual disease rating
[6] = tested on: Puccinia recondita f. sp. tritici; experiment: Test I: wheat leaf rust, preventive spray on wheat seedlings, visual disease rating
Source text: General protocol for preparing test suspensions for Tests A-J: the test compounds were first dissolved in acetone in an amount equal to 3% of the final volume and then suspended at the desired concentration (in ppm) in acetone and purified water (50/50 mix by volume) containing 250 ppm of the surfactant Trem® 014 (polyhydric alcohol esters). The resulting test suspensions were then used in Tests A-J. Spraying a 200 ppm test suspension to the point of run-off on the test plants was the equivalent of a rate of 500 g/ha. Unless otherwise indicated, the rating values indicate a 200 ppm test suspension was used. (An asterisk “*” next to the rating value indicates a 40 ppm test suspension was used.)
The test suspension was sprayed to the point of run-off on wheat seedlings. The following day the seedlings were inoculated with a spore suspension of Puccinia recondita f. sp. tritici (the causal agent of wheat leaf rust) and incubated in a saturated atmosphere at 20° C. for 24 h, and then moved to a growth chamber at 20° C. for 7 days, after which time visual disease ratings were made
A dash (-) indicates no test results.

[7] = tested on: Alternaria solani; experiment: Test C: tomato early blight, preventive spray on tomato seedlings, visual disease rating
[8] = wheat powdery mildew, preventive spray, 100 = 100% disease control, 0 = no control
[9] = Septoria glume blotch on wheat, preventive spray, 100 = 100% disease control, 0 = no control
[10] = wheat leaf rust, curative spray, 100 = 100% disease control, 0 = no control
[11] = wheat leaf blotch, preventive spray, 100 = 100% disease control, 0 = no control
[12] = tomato Botrytis, preventive spray, 100 = 100% disease control, 0 = no control
[13] = wheat leaf rust, preventive spray, 100 = 100% disease control, 0 = no control
[14] = tomato early blight, preventive spray, 100 = 100% disease control, 0 = no control
[15] = wheat powdery mildew, 100 = 100% disease control, 0 = no control relative to controls
[16] = Septoria glume blotch, 100 = 100% disease control, 0 = no control relative to controls
[17] = wheat leaf rust, curative, 100 = 100% disease control, 0 = no control relative to controls
[18] = wheat leaf blotch, 100 = 100% disease control, 0 = no control relative to controls
[19] = tomato Botrytis, 100 = 100% disease control, 0 = no control relative to controls
[20] = wheat leaf rust, preventive, 100 = 100% disease control, 0 = no control relative to controls
[21] = tomato early blight, 100 = 100% disease control, 0 = no control relative to controls

| Structure (SMILES) | Test J rating (% disease control) [1, 15] [%] | Test F rating (% disease control) [2, 16] [%] | Test H rating (% disease control) [3, 17] [%] | Test G rating (% disease control) [4, 18] [%] | Test B rating (% disease control) [5, 19] [%] | Test I rating (% disease control) [6, 20] [%] | Test C rating (% disease control) [7, 21] [%] | also measured |
| --- | --- | --- | --- | --- | --- | --- | --- | --- |
| COc1cc(F)c(-c2c(C)nn(C)c2Oc2c(F)cc(N)cc2F)c(F)c1 [compound 77] |  |  |  |  |  |  |  | Test J rating (% disease control) [1, 8]: 0%; Test F rating (% disease control) [2, 9]: 0%; Test H rating (% disease control) [3, 10]: 6%; Test G rating (% disease control) [4, 11]: 95%; Test B rating (% disease control) [5, 12]: 99%; Test I rating (% disease control) [6, 13]: 97%; Test C rating (% disease control) [7, 14]: 0% |
| Cc1nn(C)c(Nc2ccc(F)cc2)c1-c1ccccc1F [compound 184] | 98 | 0 | 0 | 99 | 97 | 82 | 0 |  |
| Cc1nn(C)c(Oc2c(F)cc(C#N)cc2F)c1-c1ccccc1Cl [compound 271] | 98 | 99 | 0 | 100 | 100 | 99 | 99 |  |
| COc1ccc(-c2c(C)nn(C)c2Nc2ncc(Cl)cc2Cl)c(Cl)c1 [compound 267] | 93 | 60 | 0 | 100 | 100 | 96 | 79 |  |
| COc1ccc(Oc2c(-c3ccc(C)cc3)c(C)nn2C)c(Cl)c1 [compound 55] |  |  |  |  |  |  |  | Test J rating (% disease control) [1, 8]: 73%; Test F rating (% disease control) [2, 9]: 0%; Test H rating (% disease control) [3, 10]: 0%; Test G rating (% disease control) [4, 11]: 98%; Test B rating (% disease control) [5, 12]: 6%; Test I rating (% disease control) [6, 13]: 41%; Test C rating (% disease control) [7, 14]: 0% |
| Cc1nn(C)c(Nc2cc([N+](=O)[O-])ccc2F)c1-c1ccc(F)cc1Cl [compound 345] |  |  |  |  |  |  |  | Test J disease control rating ([1]; wheat powdery mildew, sprayed the day before inoculation, 100 = 100% disease control, 0 = no disease control relative to controls): 0%; Test F disease control rating ([2]; Septoria glume blotch on wheat, 100 = 100% disease control, 0 = no disease control relative to controls): 0%; Test H disease control rating ([3]; wheat leaf rust, sprayed after inoculation, 100 = 100% disease control, 0 = no disease control relative to controls): 0%; Test G disease control rating ([4]; wheat leaf blotch, sprayed the day before inoculation, 100 = 100% disease control, 0 = no disease control relative to controls): 67%; Test B disease control rating ([5]; tomato Botrytis, 100 = 100% disease control, 0 = no disease control relative to controls): 0%; Test I disease control rating ([6]; wheat leaf rust, sprayed the day before inoculation, 100 = 100% disease control, 0 = no disease control relative to controls): 9%; Test C disease control rating ([7]; tomato early blight, 100 = 100% disease control, 0 = no disease control relative to controls): 0% |
| Cc1nn(C)c(Nc2ccc(Cl)nc2Cl)c1-c1ccc(F)cc1Cl [compound 107] |  |  |  |  |  |  |  | Test J rating (% disease control), value marked * ([1]; wheat powdery mildew, preventive spray, rating marked with asterisk (different test condition, key not given)): 0* %; Test F rating (% disease control), value marked * ([2]; Septoria glume blotch, preventive spray, rating marked with asterisk (different test condition, key not given)): 0* %; Test H rating (% disease control), value marked * ([3]; wheat leaf rust, curative spray, rating marked with asterisk (different test condition, key not given)): 8* %; Test G rating (% disease control), value marked * ([4]; wheat leaf blotch, preventive spray, rating marked with asterisk (different test condition, key not given)): 99* %; Test B rating (% disease control), value marked * ([5]; tomato Botrytis, preventive spray, rating marked with asterisk (different test condition, key not given)): 99* %; Test I rating (% disease control), value marked * ([6]; wheat leaf rust, preventive spray, rating marked with asterisk (different test condition, key not given)): 24* %; Test C rating (% disease control), value marked * ([7]; tomato early blight, preventive spray, rating marked with asterisk (different test condition, key not given)): 0* % |
| COc1cc(F)c(Nc2c(-c3c(F)cccc3Cl)c(C)nn2C)c(F)c1 [compound 190] | 99 | 80 | 94 | 100 | 99 | 100 | 99 |  |
| COc1cc(F)c(Nc2c(-c3ccccc3F)c(C)nn2C)c(F)c1 [compound 183] | 99 | 67 | 27 | 99 | 97 | 94 | 100 |  |
| Cc1nn(C)c(Oc2ccc(Cl)cn2)c1-c1c(F)cc(F)cc1F [compound 39] |  |  |  |  |  |  |  | Test J rating (% disease control) [1, 8]: 99%; Test F rating (% disease control) [2, 9]: 0%; Test H rating (% disease control) [3, 10]: 99%; Test G rating (% disease control) [4, 11]: 99%; Test B rating (% disease control) [5, 12]: 100%; Test I rating (% disease control) [6, 13]: 99%; Test C rating (% disease control) [7, 14]: 99% |
| C=CCN(c1c(F)cc(OC)cc1F)c1c(-c2ccc(F)cc2Cl)c(C)nn1C [compound 159] | 100 | 0 | 74 | 100 | 99 | 99 | 0 |  |
| COc1cc(F)c(-c2c(C)nn(C)c2Oc2ccc(C)c(F)c2)c(F)c1 [compound 188] | 97 | 0 | 0 | 100 | 87 | 97 | 0 |  |
| COc1cc(Oc2c(-c3c(F)cc(F)cc3F)c(C)nn2C)ccc1C [compound 217] | 99 | 0 | 40 | 83 | 75 | 79 | 0 |  |
| Cc1nn(C)c(Nc2c(F)cc(Cl)cc2F)c1-c1ccc(C#N)cc1Cl [Compound 336, 3-chloro-4-[5-[(4-chloro-2,6-difluorophenyl)amino]-1,3-dimethyl-1H-pyrazol-4-yl]-benzonitrile] |  |  |  |  |  |  |  | pest or weed control at 200 µg/mL ([1]; Blumeria graminis, in Triticum aestivum, 192 h, read-out: Test J disease control rating): 99%; pest or weed control at 200 µg/mL ([2]; Parastagonospora nodorum, in Triticum aestivum, 192 h, read-out: Test F disease control rating): 95%; pest or weed control at 200 µg/mL ([3]; 144 h, read-out: Test H disease control rating): 94%; pest or weed control at 200 µg/mL ([4]; Zymoseptoria tritici, in Triticum aestivum, 504 h, read-out: Test G disease control rating): 100%; pest or weed control at 200 µg/mL ([5]; Botrytis cinerea, in Solanum lycopersicum, 120 h, read-out: Test B disease control rating): 100%; pest or weed control at 200 µg/mL ([6]; 192 h, read-out: Test I disease control rating): 100%; pest or weed control at 200 µg/mL ([7]; Alternaria solani, in Solanum lycopersicum, 168 h, read-out: Test C disease control rating): 97% |
| Cc1nn(C)c(Nc2cc(Cl)ccc2Cl)c1-c1ccc(F)cc1F [compound 245] | 93 | 0 | 0 | 97 | 90 | 68 | 0 |  |
| Cc1nn(C)c(Nc2ccc(Cl)cc2Cl)c1-c1c(F)cccc1F [compound 179] | 100 | 73 | 0 | 95 | 100 | 93 | 99 |  |
